Bounds are passed on as bounds.

The values that follow come from US10072011B2, “Substituted bridged urea analogs as sirtuin modulators” (GlaxoSmithKline Intellectual Property (No.2) Limited, priority 2014, dated 2018).

The assay deals with T1, SIRT1 (Homo sapiens, UniProt Q96EB6).
T1 sequence (Q96EB6 1-747): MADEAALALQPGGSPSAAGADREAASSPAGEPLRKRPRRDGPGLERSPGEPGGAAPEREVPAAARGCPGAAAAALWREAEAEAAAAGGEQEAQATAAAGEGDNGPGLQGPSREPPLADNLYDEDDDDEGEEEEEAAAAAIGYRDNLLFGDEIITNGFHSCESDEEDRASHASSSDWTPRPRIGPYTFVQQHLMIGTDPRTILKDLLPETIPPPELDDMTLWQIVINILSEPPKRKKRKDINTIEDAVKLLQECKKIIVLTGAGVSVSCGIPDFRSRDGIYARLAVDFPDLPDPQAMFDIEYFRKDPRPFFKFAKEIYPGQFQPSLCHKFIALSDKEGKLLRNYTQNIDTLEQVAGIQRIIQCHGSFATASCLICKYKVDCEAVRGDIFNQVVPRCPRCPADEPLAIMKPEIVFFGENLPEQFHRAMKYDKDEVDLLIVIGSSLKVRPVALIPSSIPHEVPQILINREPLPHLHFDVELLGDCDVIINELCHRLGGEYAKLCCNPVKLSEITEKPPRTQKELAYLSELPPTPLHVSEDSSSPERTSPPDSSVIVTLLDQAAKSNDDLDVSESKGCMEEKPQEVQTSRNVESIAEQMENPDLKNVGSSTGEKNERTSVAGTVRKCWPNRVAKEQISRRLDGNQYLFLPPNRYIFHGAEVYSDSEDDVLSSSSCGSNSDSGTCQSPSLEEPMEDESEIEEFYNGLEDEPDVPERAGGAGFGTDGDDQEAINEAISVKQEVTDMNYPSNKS
Kind of assay: Trp mass spectrometry assay of SIRT1 activation (Ac-R-H-K-K(Ac)-W-NH2 peptide). The assay is classed as biochemical. The conditions noted are these: Trp peptide 0.5 μM, 120 μM βNAD+, 10 nM SIRT1, 25 min at 25° C.; for Emax: 25 min, relative to control (100%), read-out: TRP MAX RESP (percent maximum fold activation). Put shortly: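 N-terminal His-tagged human SIRT1, expressed in BL21(DE3) and purified, was incubated 25 min with an acetylated Trp peptide and NAD plus test compound at varying concentrations, then quenched with formic acid. OAADPR or deacetylated peptide was quantified by mass spectrometry versus compound-free control; EC1.5 is the concentration giving 50% activity increase, with percent maximum activation.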

On to `O=C(NCC(F)(F)F)c1ccc2c(n1)N(C(=O)Nc1cc(-c3cnco3)ccn1)[C@H]1CCN2C1` [Example 83, (4S)—N5-(4-(oxazol-5-yl)pyridin-2-yl)-N7-(2,2,2-trifluoroethyl)-3,4-dihydro-1,4-methanopyrido[2,3-b][1,4]diazepine-5,7(2H)-dicarboxamide], for which the Emax was above 150% and the “TRP Activity (EC1.5, concentration of test compound that results in 150% activation of SIRT1)” value is reported as “A (EC1.5<1 μM)”.

As for `Cc1nn(C)cc1-c1ccnc(NC(=O)N2c3nc(C(=O)N[C@H](C)C(F)(F)F)ccc3N3CC[C@H]2C3)c1` [Example 84, (4S)—N5-(4-(1,3-dimethyl-1H-pyrazol-4-yl)pyridin-2-yl)-N7-((R)-1,1,1-trifluoropropan-2-yl)-3,4-dihydro-1,4-methanopyrido[2,3-b][1,4]diazepine-5,7(2H)-dicarboxamide], the Emax was above 150% and the “TRP Activity (EC1.5, concentration of test compound that results in 150% activation of SIRT1)” value was “A (EC1.5<1 μM)”.

`C[C@@H](NC(=O)c1ccc2c(n1)N(C(=O)Nc1cc(-c3ccn(C)n3)ccn1)[C@H]1CCN2C1)C(F)(F)F` [Example 85, (4S)—N5-(4-(1-methyl-1H-pyrazol-3-yl)pyridin-2-yl)-N7-((R)-1,1,1-trifluoropropan-2-yl)-3,4-dihydro-1,4-methanopyrido[2,3-b][1,4]diazepine-5,7(2H)-dicarboxamide]: the Emax was above 150% and the “TRP Activity (EC1.5, concentration of test compound that results in 150% activation of SIRT1)” value is reported as “A (EC1.5<1 μM)”.

As for `C[C@@H](NC(=O)c1ccc2c(n1)N(C(=O)Nc1cc(-c3cncn3C)ccn1)[C@H]1CCN2C1)C(F)(F)F` [Example 86, (4S)—N5-(4-(1-methyl-1H-imidazol-5-yl)pyridin-2-yl)-N7-((R)-1,1,1-trifluoropropan-2-yl)-3,4-dihydro-1,4-methanopyrido[2,3-b][1,4]diazepine-5,7(2H)-dicarboxamide], the Emax is above 150% and the “TRP Activity (EC1.5, concentration of test compound that results in 150% activation of SIRT1)” value is on record as “A (EC1.5<1 μM)”.

Consider `O=C(N[C@H](C1CC1)C(F)(F)F)c1ccc2c(n1)N(C(=O)Nc1cc(OC[C@H](O)CO)ccn1)[C@H]1CCN2C1` [Example 88, (4S)—N7-((R)-1-cyclopropyl-2,2,2-trifluoroethyl)-N5-(4-((R)-2,3-dihydroxypropoxy)pyridin-2-yl)-3,4-dihydro-1,4-methanopyrido[2,3-b][1,4]diazepine-5,7(2H)-dicarboxamide], for which the Emax is above 150% and the “TRP Activity (EC1.5, concentration of test compound that results in 150% activation of SIRT1)” value is “A (EC1.5<1 μM)”.

Consider `O=C(NCC(F)(F)F)c1ccc2c(n1)N(C(=O)Nc1cc(OC[C@H](O)CO)ccn1)[C@H]1CCN2C1` [Example 89, (4S)—N5-(4-((R)-2,3-dihydroxypropoxy)pyridin-2-yl)-N7-(2,2,2-trifluoroethyl)-3,4-dihydro-1,4-methanopyrido[2,3-b][1,4]diazepine-5,7(2H)-dicarboxamide], for which the Emax is above 150% and the “TRP Activity (EC1.5, concentration of test compound that results in 150% activation of SIRT1)” value is “A (EC1.5<1 μM)”.

For `CC[C@@H](NC(=O)c1ccc2c(n1)N(C(=O)Nc1cc(OC[C@H](O)CO)ccn1)[C@H]1CCN2C1)C(F)(F)F` [Example 90, (4S)—N5-(4-((R)-2,3-dihydroxypropoxy)pyridin-2-yl)-N7-((R)-1,1,1-trifluorobutan-2-yl)-3,4-dihydro-1,4-methanopyrido[2,3-b][1,4]diazepine-5,7(2H)-dicarboxamide], the Emax is above 150% and the “TRP Activity (EC1.5, concentration of test compound that results in 150% activation of SIRT1)” value is “A (EC1.5<1 μM)”.

Take `O=C(NC[C@H](O)C(F)(F)F)c1ccc2c(n1)N(C(=O)Nc1cc(OC[C@H](O)CO)ccn1)[C@H]1CCN2C1` [Example 91, (4S)—N5-(4-((R)-2,3-dihydroxypropoxy)pyridin-2-yl)-N7-((S)-3,3,3-trifluoro-2-hydroxypropyl)-3,4-dihydro-1,4-methanopyrido[2,3-b][1,4]diazepine-5,7(2H)-dicarboxamide]: the Emax is above 150% and the “TRP Activity (EC1.5, concentration of test compound that results in 150% activation of SIRT1)” value is given as “A (EC1.5<1 μM)”.
